Data as given in patent US10898459B2, “Method of treating chronic kidney disease” (Panion & BF Biotech Inc., priority 2006, dated 2021).

How the values were obtained:
[1] = system: patients with end stage renal disease (ESRD) on hemodialysis; assay: Treatment-emergent adverse events in the dose-ranging ESRD study; assay type: in vivo, human
Description: Safety will be monitored by recording adverse events and the results of physical examinations, vital signs and laboratory tests at each study visit.
Objectives: (1) To determine the effect of ferric citrate at doses of 2, 4 and 6 g daily, administered TID (three times a day), for 28 days on serum phosphate (PO4) levels in patients with end stage renal disease (ESRD). (2) To evaluate the safety of ferric citrate at doses of 2, 4, 6 g daily, administered TID, for 28 days in patients with ESRD.
Study Design: Randomized, double-blind, placebo-controlled, dose-ranging study to assess the effect of ferric citrate on serum phosphate concentrations in patients with ESRD on hemodialysis. Patients are assessed at Study Days 14 and 28 for effectiveness as measured by serum phosphate concentrations. Patients who received one or more doses of study medication are also assessed for safety.

[2] = system: patients with end stage renal disease (ESRD); assay: Open-label extension of Phase II study: serum creatinine level; assay type: in vivo, human; conditions: several patients who received 6 g/day
Description: Glomerular filtration rate (GFR) level correlates with structural kidney damage and is used as a golden standard to measure kidney function. GFR can be estimated by the biomarkers serum creatinine. As renal function deteriorates, kidney lost its function to excrete creatinine effectively and lead to creatinine retention in the body. Therefore, increase of serum creatinine indicates lowering GFR and is an important sign of kidney deterioration.
In an open-label extension of a Phase II clinical study: “randomized, double-blind, placebo-controlled, dose-ranging study of the effects of ferric citrate on serum phosphate in patients with end stage renal disease (ESRD)”, some of the patients were administered 2˜6 g/day of ferric citrate and serum creatinine level was monitored to assess kidney function.

[3] = system: patients with end stage renal disease (ESRD); conditions: 3 g daily, recent pilot study in ESRD patients; cited from earlier work

ferric citrate
Abdominal Pain (Preferred Term), # Event ([1]; 2 g/day (N = 33)): 0 | Abdominal Pain (Preferred Term), (%) ([1]; 2 g/day (N = 33)): (0.0) % | Diarrhea (Preferred Term), # Event ([1]; 2 g/day (N = 33)): 3 | Diarrhea (Preferred Term), (%) ([1]; 2 g/day (N = 33)): (9.1) % | GI Disorder, Definitely (relationship), # Event ([1]; 2 g/day (N = 33)): 0 | GI Disorder, Definitely (relationship), (%) ([1]; 2 g/day (N = 33)): (0.0) % | GI Disorder, Possibly (relationship), # Event ([1]; 2 g/day (N = 33)): 3 | GI Disorder, Possibly (relationship), (%) ([1]; 2 g/day (N = 33)): (9.1) % | GI Disorder, Probably (relationship), # Event ([1]; 2 g/day (N = 33)): 2 | GI Disorder, Probably (relationship), (%) ([1]; 2 g/day (N = 33)): (6.1) % | GI Disorders (System Organ Class), # Event ([1]; 2 g/day (N = 33)): 8 | GI Disorders (System Organ Class), (%) ([1]; 2 g/day (N = 33)): (24.2) % | GI Disorders, Mild (severity), # Event ([1]; 2 g/day (N = 33)): 6 | GI Disorders, Mild (severity), (%) ([1]; 2 g/day (N = 33)): (18.2) % | General Disorders (System Organ Class), # Event ([1]; 2 g/day (N = 33)): 4 | General Disorders (System Organ Class), (%) ([1]; 2 g/day (N = 33)): (12.1) % | Infections and Infestations (System Organ Class), # Event ([1]; 2 g/day (N = 33)): 0 | Infections and Infestations (System Organ Class), (%) ([1]; 2 g/day (N = 33)): (0.0) % | Skin and SC Tissue Disorders (System Organ Class), # Event ([1]; 2 g/day (N = 33)): 3 | Skin and SC Tissue Disorders (System Organ Class), (%) ([1]; 2 g/day (N = 33)): (9.1) % | T#at1 AE, Definitely (relationship), # Event ([1]; 2 g/day (N = 33)): 0 | T#at1 AE, Definitely (relationship), (%) ([1]; 2 g/day (N = 33)): (0.0) % | T#at1 AE, Mild (severity), # Event ([1]; 2 g/day (N = 33)): 13 | T#at1 AE, Mild (severity), (%) ([1]; 2 g/day (N = 33)): (39.4) % | T#at1 AE, Moderate (severity), # Event ([1]; 2 g/day (N = 33)): 6 | T#at1 AE, Moderate (severity), (%) ([1]; 2 g/day (N = 33)): (18.2) % | T#at1 AE, Possibly (relationship), # Event ([1]; 2 g/day (N = 33)): 5 | T#at1 AE, Possibly (relationship), (%) ([1]; 2 g/day (N = 33)): (15.2) % | T#at1 AE, Probably (relationship), # Event ([1]; 2 g/day (N = 33)): 2 | T#at1 AE, Probably (relationship), (%) ([1]; 2 g/day (N = 33)): (6.1) % | T#at1 AE, Severe (severity), # Event ([1]; 2 g/day (N = 33)): 0 | T#at1 AE, Severe (severity), (%) ([1]; 2 g/day (N = 33)): (0.0) % | Total number of subjects with at least one adverse event (T#at1 AE), # Event ([1]; 2 g/day (N = 33)): 16 | Total number of subjects with at least one adverse event (T#at1 AE), (%) ([1]; 2 g/day (N = 33)): (48.5) % | Abdominal Pain (Preferred Term), # Event ([1]; 4 g/day (N = 34)): 4 | Abdominal Pain (Preferred Term), (%) ([1]; 4 g/day (N = 34)): (11.8) % | Diarrhea (Preferred Term), # Event ([1]; 4 g/day (N = 34)): 1 | Diarrhea (Preferred Term), (%) ([1]; 4 g/day (N = 34)): (2.9) % | GI Disorder, Definitely (relationship), # Event ([1]; 4 g/day (N = 34)): 0 | GI Disorder, Definitely (relationship), (%) ([1]; 4 g/day (N = 34)): (0.0) % | GI Disorder, Possibly (relationship), # Event ([1]; 4 g/day (N = 34)): 6 | GI Disorder, Possibly (relationship), (%) ([1]; 4 g/day (N = 34)): (17.6) % | GI Disorder, Probably (relationship), # Event ([1]; 4 g/day (N = 34)): 2 | GI Disorder, Probably (relationship), (%) ([1]; 4 g/day (N = 34)): (5.9) % | GI Disorders (System Organ Class), # Event ([1]; 4 g/day (N = 34)): 10 | GI Disorders (System Organ Class), (%) ([1]; 4 g/day (N = 34)): (29.4) % | GI Disorders, Mild (severity), # Event ([1]; 4 g/day (N = 34)): 8 | GI Disorders, Mild (severity), (%) ([1]; 4 g/day (N = 34)): (23.5) % | General Disorders (System Organ Class), # Event ([1]; 4 g/day (N = 34)): 2 | General Disorders (System Organ Class), (%) ([1]; 4 g/day (N = 34)): (5.9) % | Infections and Infestations (System Organ Class), # Event ([1]; 4 g/day (N = 34)): 3 | Infections and Infestations (System Organ Class), (%) ([1]; 4 g/day (N = 34)): (8.8) % | Skin and SC Tissue Disorders (System Organ Class), # Event ([1]; 4 g/day (N = 34)): 0 | Skin and SC Tissue Disorders (System Organ Class), (%) ([1]; 4 g/day (N = 34)): (0.0) % | T#at1 AE, Definitely (relationship), # Event ([1]; 4 g/day (N = 34)): 0 | T#at1 AE, Definitely (relationship), (%) ([1]; 4 g/day (N = 34)): (0.0) % | T#at1 AE, Mild (severity), # Event ([1]; 4 g/day (N = 34)): 9 | T#at1 AE, Mild (severity), (%) ([1]; 4 g/day (N = 34)): (26.5) % | T#at1 AE, Moderate (severity), # Event ([1]; 4 g/day (N = 34)): 3 | T#at1 AE, Moderate (severity), (%) ([1]; 4 g/day (N = 34)): (8.8) % | T#at1 AE, Possibly (relationship), # Event ([1]; 4 g/day (N = 34)): 6 | T#at1 AE, Possibly (relationship), (%) ([1]; 4 g/day (N = 34)): (17.6) % | T#at1 AE, Probably (relationship), # Event ([1]; 4 g/day (N = 34)): 2 | T#at1 AE, Probably (relationship), (%) ([1]; 4 g/day (N = 34)): (5.9) % | T#at1 AE, Severe (severity), # Event ([1]; 4 g/day (N = 34)): 2 | T#at1 AE, Severe (severity), (%) ([1]; 4 g/day (N = 34)): (5.9) % | Total number of subjects with at least one adverse event (T#at1 AE), # Event ([1]; 4 g/day (N = 34)): 12 | Total number of subjects with at least one adverse event (T#at1 AE), (%) ([1]; 4 g/day (N = 34)): (35.3) % | Abdominal Pain (Preferred Term), # Event ([1]; 6 g/day (N = 33)): 2 | Abdominal Pain (Preferred Term), (%) ([1]; 6 g/day (N = 33)): (6.1) % | Diarrhea (Preferred Term), # Event ([1]; 6 g/day (N = 33)): 1 | Diarrhea (Preferred Term), (%) ([1]; 6 g/day (N = 33)): (3.0) % | GI Disorder, Definitely (relationship), # Event ([1]; 6 g/day (N = 33)): 0 | GI Disorder, Definitely (relationship), (%) ([1]; 6 g/day (N = 33)): (0.0) % | GI Disorder, Possibly (relationship), # Event ([1]; 6 g/day (N = 33)): 1 | GI Disorder, Possibly (relationship), (%) ([1]; 6 g/day (N = 33)): (3.0) % | GI Disorder, Probably (relationship), # Event ([1]; 6 g/day (N = 33)): 5 | GI Disorder, Probably (relationship), (%) ([1]; 6 g/day (N = 33)): (15.2) % | GI Disorders (System Organ Class), # Event ([1]; 6 g/day (N = 33)): 10 | GI Disorders (System Organ Class), (%) ([1]; 6 g/day (N = 33)): (30.3) % | GI Disorders, Mild (severity), # Event ([1]; 6 g/day (N = 33)): 9 | GI Disorders, Mild (severity), (%) ([1]; 6 g/day (N = 33)): (27.3) % | General Disorders (System Organ Class), # Event ([1]; 6 g/day (N = 33)): 4 | General Disorders (System Organ Class), (%) ([1]; 6 g/day (N = 33)): (12.1) % | Infections and Infestations (System Organ Class), # Event ([1]; 6 g/day (N = 33)): 1 | Infections and Infestations (System Organ Class), (%) ([1]; 6 g/day (N = 33)): (3.0) % | Skin and SC Tissue Disorders (System Organ Class), # Event ([1]; 6 g/day (N = 33)): 4 | Skin and SC Tissue Disorders (System Organ Class), (%) ([1]; 6 g/day (N = 33)): (12.1) % | T#at1 AE, Definitely (relationship), # Event ([1]; 6 g/day (N = 33)): 0 | T#at1 AE, Definitely (relationship), (%) ([1]; 6 g/day (N = 33)): (0.0) % | T#at1 AE, Mild (severity), # Event ([1]; 6 g/day (N = 33)): 14 | T#at1 AE, Mild (severity), (%) ([1]; 6 g/day (N = 33)): (42.4) % | T#at1 AE, Moderate (severity), # Event ([1]; 6 g/day (N = 33)): 2 | T#at1 AE, Moderate (severity), (%) ([1]; 6 g/day (N = 33)): (6.1) % | T#at1 AE, Possibly (relationship), # Event ([1]; 6 g/day (N = 33)): 2 | T#at1 AE, Possibly (relationship), (%) ([1]; 6 g/day (N = 33)): (6.1) % | T#at1 AE, Probably (relationship), # Event ([1]; 6 g/day (N = 33)): 5 | T#at1 AE, Probably (relationship), (%) ([1]; 6 g/day (N = 33)): (15.2) % | T#at1 AE, Severe (severity), # Event ([1]; 6 g/day (N = 33)): 1 | T#at1 AE, Severe (severity), (%) ([1]; 6 g/day (N = 33)): (3.0) % | Total number of subjects with at least one adverse event (T#at1 AE), # Event ([1]; 6 g/day (N = 33)): 17 | Total number of subjects with at least one adverse event (T#at1 AE), (%) ([1]; 6 g/day (N = 33)): (51.5) % | serum creatinine level [2]: trend of decreased serum creatinine level | tolerability (GI symptoms) [3]: mild, but tolerable GI symptoms
